Source: PubChem BioAssay AID624112 (National Center for Advancing Translational Sciences (NCATS), 2012)

System: Aqueous solubility in PBS, percent remaining
Assay: qHTS Assay for Inhibitors of Bacillus subtilis Sfp phosphopantetheinyl transferase (PPTase): Aqueous Solubility in PBS
Details: stronger effect = higher value
Source text: The covalent attachment of a phosphopantetheinyl (4'-PP) arm to a variety of synthases and other proteins is a key posttranslational protein modification. The 4'-PP is installed on the proteins post-translationally from coenzyme A (CoA) on a conserved serine residue by action of phosphopantetheinyl transferase (PPTase) enzymes. Phosphopantetheinylation is essential for synthase activity, and removal of the PPTase gene precludes natural product synthesis in microorganisms, or in the case of fatty acid biosynthesis, renders the organism unviable. PPTase enzymes belong to a distinct structural superfamily. Within bacteria, these enzymes are grouped into two classes based upon primary structure, the AcpS-Type and Sfp-Type PPTases.
Sfp-type PPTases, corresponding to an activator of surfactin production in Bacillus subtilis, are responsible for modifying type I polyketide and nonribosomal peptide synthases of prokaryotes. Sfp-type PPTases are responsible for the activation of a variety of pathogen-associated virulence factors. […]
2microM of compound is incubated in PBS buffer at pH 7; the reference compound is procaine. Compounds are incubated at 37 deg C for the pre-determined time periods and the when aliquots are removed. Samples are analyzed with LC-MS/MS.

For COc1ccnc(NC(=S)N2CCN(c3ncc(C(F)(F)F)cc3Cl)CC2)c1, which solubility, percent remaining is on record?
The solubility, percent remaining was 100%.
